# From article PMC3179267 (Biochemistry, 2011)
# Where a SMILES comes first, the peptide text is derived from it. Bridges are numbered along the chain shown (N, C = ends).
# Legend:
# trypsin [1] = conditions: cited from earlier work
# trypsin [2] = assay: Protease susceptibility assay; format: in vitro ADME; conditions: 80 μM peptide, pH 8.2, room temperature, up to 60 min, analytical HPLC
SMILES,"susceptibility to trypsin, literature (trypsin [1])",susceptibility to trypsin (trypsin [2])
"CC[C@H](C)[C@@H]1NC(=O)[C@H](CCC(=O)O)NC(=O)[C@@H]2CSSC[C@@H]3NC(=O)[C@H](Cc4ccc(O)cc4)NC(=O)[C@@H](NC(=O)[C@@H](NC(=O)[C@H](C)N)[C@@H](C)O)CSSC[C@@H](C(=O)N[C@@H](CCCNC(=N)N)C(=O)O)NC(=O)[C@H](CSSC[C@H](NC(=O)[C@H](CCCNC(=N)N)NC(=O)CNC(=O)[C@H]([C@@H](C)O)NC(=O)[C@H](CCCNC(=N)N)NC3=O)C(=O)N[C@@H](C)C(=O)N[C@@H]([C@@H](C)O)C(=O)N[C@@H](CCCNC(=N)N)C(=O)N[C@@H](CCC(=O)O)C(=O)N[C@@H](CO)C(=O)N[C@@H](CC(C)C)C(=O)N[C@@H](CO)C(=O)NCC(=O)N[C@@H](C(C)C)C(=O)N2)NC(=O)[C@H](CC(C)C)NC(=O)[C@H](CCCNC(=N)N)NC(=O)[C@H](Cc2ccc(O)cc2)NC(=O)[C@H](CC(C)C)NC(=O)[C@H](CCCNC(=N)N)NC(=O)CNC(=O)[C@H](CO)NC1=O [HD5ox] (H-ATCYCRTGRCATRESLSGVCEISGRLYRLCCR-OH; disulfide 3-31, 5-20, 10-30)",very poor substrate,not accepted as a substrate
CC[C@H](C)[C@H](NC(=O)[C@H](CCC(=O)O)NC(=O)[C@H](CS)NC(=O)[C@@H](NC(=O)CNC(=O)[C@H](CO)NC(=O)[C@H](CC(C)C)NC(=O)[C@H](CO)NC(=O)[C@H](CCC(=O)O)NC(=O)[C@H](CCCNC(=N)N)NC(=O)[C@@H](NC(=O)[C@H](C)NC(=O)[C@H](CS)NC(=O)[C@H](CCCNC(=N)N)NC(=O)CNC(=O)[C@@H](NC(=O)[C@H](CCCNC(=N)N)NC(=O)[C@H](CS)NC(=O)[C@H](Cc1ccc(O)cc1)NC(=O)[C@H](CS)NC(=O)[C@@H](NC(=O)[C@H](C)N)[C@@H](C)O)[C@@H](C)O)[C@@H](C)O)C(C)C)C(=O)N[C@@H](CO)C(=O)NCC(=O)N[C@@H](CCCNC(=N)N)C(=O)N[C@@H](CC(C)C)C(=O)N[C@@H](Cc1ccc(O)cc1)C(=O)N[C@@H](CCCNC(=N)N)C(=O)N[C@@H](CC(C)C)C(=O)N[C@@H](CS)C(=O)N[C@@H](CS)C(=O)N[C@@H](CCCNC(=N)N)C(=O)O [HD5red] (H-ATCYCRTGRCATRESLSGVCEISGRLYRLCCR-OH),–,rapid proteolytic cleavage
